# “And” between values parts separate entries of the source, which are not always exact repeats. Equal values may be shown once.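 These data come from cells grown in 96-well plates and exposed to compound for 48 hours at five concentrations. GI50: concentration for 50% inhibition of growth. The concentration for full growth arrest is given as TGI.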
# What was measured:
# Assay in all cases: NCI tumour cell line growth inhibition, 48 h
# HCT-15 colon = tested on: HCT-15 colon
# HS 578T breast = tested on: HS 578T breast
# MCF7 breast = tested on: MCF7 breast
# MDA-MB-231 breast = tested on: MDA-MB-231 breast
# HOP-92 NSCLC = tested on: HOP-92 NSCLC
# BT-549 breast = tested on: BT-549 breast
# SK-OV-3 ovarian = tested on: SK-OV-3 ovarian
# MOLT-4 leukemia = tested on: MOLT-4 leukemia
# MDA-N = tested on: MDA-N
# EKVX NSCLC = tested on: EKVX NSCLC
# HOP-62 NSCLC = tested on: HOP-62 NSCLC
SMILES,TGI (HCT-15 colon),TGI (HS 578T breast),TGI (MCF7 breast),TGI (MDA-MB-231 breast),TGI (HOP-92 NSCLC),TGI (BT-549 breast),TGI (SK-OV-3 ovarian),TGI (MOLT-4 leukemia),TGI (MDA-N),TGI (EKVX NSCLC),TGI (HOP-62 NSCLC),GI50 (BT-549 breast)
CCOC(=O)NC(Nc1cccc(C(F)(F)F)c1)(C(F)(F)F)C(F)(F)F,> 100 µM,> 100 µM,> 100 µM,> 100 µM,> 100 µM,> 100 µM,> 100 µM,> 100 µM,> 100 µM,> 100 µM,> 100 µM,–
COc1ccc2c(cnc3c4cc(OC)c(OC)cc4ccc23)c1,> 100 µM,> 100 µM,> 100 µM,> 100 µM,> 100 µM,> 100 µM,> 100 µM,> 100 µM,> 100 µM,> 100 µM,> 100 µM,–
C=C([C@@]1(O)C[C@H]2[C@H](CCC2(OC)OC)[C@@H]2c3ccccc3O[C@@H]21)[Si](C)(C)C,> 100 µM,> 100 µM,> 100 µM,> 100 µM,> 100 µM,> 100 µM,> 100 µM,> 100 µM,> 100 µM,> 100 µM,> 100 µM,–
COc1ccc2cc(C(C)C(=O)N3CCOC3=O)ccc2c1 (stereo unspecified),> 100 µM,> 100 µM,> 100 µM,> 100 µM,> 100 µM,> 100 µM,> 100 µM,> 100 µM,> 100 µM,> 100 µM,> 100 µM,–
CCN1CCC(O)(/C=C/c2ccc(C)cc2C)C(C(=O)/C=C/c2ccc(C)cc2C)C1 (stereo unspecified),4.14 µM,5.38 µM,24.4 µM,4.32 µM,3.8 µM,8.52 µM,26.7 µM,5.08 µM,6.26 µM,> 26 µM,8.54 µM,–
CN1[C@@H]2C[C@@H](OC(=O)[C@H](CO)c3ccccc3)C[C@H]1[C@@H]1O[C@@H]12,> 100 µM,> 100 µM,> 100 µM,> 100 µM,> 100 µM,> 100 µM,> 100 µM,> 100 µM,> 100 µM,> 100 µM,> 100 µM,–
Nc1nc(Cl)cc(NCC2(CO)CCCC2)n1,> 100 µM,> 100 µM,> 100 µM,> 100 µM,> 100 µM,> 100 µM,> 100 µM,> 100 µM,> 100 µM,> 100 µM,> 100 µM,–
CN(C)CCOC1(Cc2ccc(F)cc2)CCC(C(C)(C)C)CC1 (stereo unspecified),21.9 µM and 19.7 µM,32.3 µM and 28 µM,14.3 µM and 18.3 µM,23.8 µM and 22.9 µM,25.3 µM,13.3 µM and 20.9 µM,27.7 µM and 28.7 µM,8.88 µM and 12.3 µM,17.3 µM and 10.5 µM,27.4 µM and 32.5 µM,19.3 µM and 18.8 µM,3.29 µM and 8.02 µM
COc1ccc(NS(=O)(=O)c2ccc(NC(NC(=O)CC(C)C)(C(F)(F)F)C(F)(F)F)cc2)nn1,> 100 µM,> 100 µM,> 100 µM,> 100 µM,> 100 µM,> 100 µM,> 100 µM,> 100 µM,> 100 µM,> 100 µM,> 100 µM,–
Cc1cc(S(=O)(=O)Nc2nc3cc(-c4ccc(Cl)cc4)sc3c(=O)n2N)c(S)cc1Cl,> 100 µM,> 100 µM,> 100 µM,> 100 µM,> 100 µM,> 100 µM,> 100 µM,55.3 µM,> 100 µM,> 100 µM,> 100 µM,–
Cn1c2ccccc2c(=NNc2cccc(C(=O)O)c2)c2ccccc21,51.4 µM,64.7 µM,11.7 µM,41 µM,51.2 µM,62.8 µM,49.6 µM,22.7 µM,31.3 µM,28.7 µM,47.8 µM,–
CC(C)(Cl)C(Br)CCC(=CCCl)CBr (mixture of isomers),3 µM,16.4 µM,2.62 µM,3.5 µM,4.03 µM,6.24 µM,31.2 µM,> 21.2 µM,3.28 µM,36.1 µM,8.33 µM,–
C#C[C@]1(O)CC[C@H]2[C@@H]3CCC4=C/C(=N/OC(=O)c5cccc6c(=O)c7ccccc7[nH]c56)CC[C@@H]4[C@H]3CC[C@@]21C,> 100 µM,> 100 µM,> 100 µM,> 100 µM,> 100 µM,> 100 µM,> 100 µM,38.1 µM,> 100 µM,> 100 µM,> 100 µM,–
N#Cc1c(Cl)cc(Cl)n2c1nc1ccccc12,12.3 µM,32.8 µM,24 µM,14.2 µM,> 21.9 µM,15.5 µM,31.2 µM,> 28.8 µM,26.3 µM,67.6 µM,51.7 µM,–
Cn1c(COC(=O)Nc2ccccc2)c(COC(=O)Nc2ccccc2)c2ccc3cc(Cl)c(Cl)cc3c21,15 µM,29 µM,10.6 µM,12.7 µM,7.54 µM,12.6 µM,> 75 µM,> 75 µM,18.3 µM,44.5 µM,–,–
Nc1ccc(C(=O)N2CCC[C@H]2CO)c(N)c1,> 100 µM,> 100 µM,> 100 µM,> 100 µM,> 100 µM,> 100 µM,> 100 µM,> 100 µM,> 100 µM,> 100 µM,> 100 µM,–

# Reference: PubChem BioAssay (NCI)
